# From PMC6891756, “Synthesis and Biological Evaluation of Novel Aminochalcones as Potential Anticancer and Antimicrobial Agents” (Molecules, 2019)
# Tests used:
# Candida albicans DSM1386 [1] = test: Microbial growth curve screening, C. albicans; format: cell-based; details: 0.1% (w/v); for ∆OD C. albicans: OD at 560 nm, control 1.58; for Lag-phase C. albicans: control 3.0 h
# Method: (§1) The antimicrobial screening tests were performed on two strains of bacteria: E. coli ATCC10536 and S. aureus DSM799, strain of yeast C. albicans DSM1386 and three strains of fungi: F. linii KB-F1, A. alternata CBS1526 and A. niger DSM1957. All microorganisms were obtained from the collection of the Faculty of Biotechnology and Food Microbiology, Wrocław University of Environmental and Life Sciences. The bacteria were cultured in nutrient broth (Biocorp, Warsaw, Poland), yeast and fungi in YM medium (3 g yeast extract, 3 g malt extract, 5 g bacteriological peptone and 10 g of glucose dissolved in 1 L of distilled water). The tests were carried out in 100-well microtiter plates. To each well 280 μL of culture medium, 10 μL of microorganism suspension and 10 μL of aminochalcone (1–18) dissolved in dimethyl sulfoxide (3% (w/v)) were added. The final concentration of the tested compound (1–18) was 0.1% (w/v). Each experiment were performed in 3 replications. The optical density of the cell suspension was measured on Bioscreen C (Automated Growth Curve Analysis System Lab System, Vantaa, Finland) at 560 nm automatically, at regular intervals of 30 min for 2–3 days. Cell cultures were maintained at 28 °C on a continuous shaker. To prepare the growth curves for each strain, the mean values of the absorbance in a function of time were used. The resulting antimicrobial activity was expressed as the increase of optical density (ΔOD) and was compared to that of the control cultures in the medium supplemented with dimethyl sulfoxide and also with reference substances: oxytetracycline (against bacteria), cycloheximide (against yeast) and nystatin (against fungi) (Sigma Aldrich).
# [2] = test system: Staphylococcus aureus DSM799; test: MIC evaluation (broth method), S. aureus; format: cell-based; details: 48–72 h, read-out: Minimal inhibitory concentration S. aureus
# Method: (§2) Sterile 96-well microtiter plates (Sarstedt) with nutrient broth (for bacteria) (Biocorp) or YM medium (for yeast and filamentous fungi) were inoculated with a standardized cell suspension of bacteria and yeast or fungal spores of 10^5 cell·mL^−1, and supplemented with aminochalcones dissolved in DMSO. […] All analysis were conducted in triplicates. The plates were incubated at 30 °C (bacteria and yeast) or 25 °C (filamentous fungi) for 48–72 h. The results were measured with the Spark® Multimode Microplate Reader (Tecan, Männedorf, Switzerland) at a 560 nm wavelength. The minimal inhibitory concentration was defined as the lowest concentration of a tested compound that completely restricted the growth of the microorganism. In order to verify the obtained results, microbial cultures subjected to each concentration of aminochalcone were inoculated onto nutrient agar or YM plates and incubated as described above. The lack of growth on agar plate was a confirmation of the MIC of the tested compound. The resulting MIC values were compared with the reference substances: oxytetracycline (against bacteria), cycloheximide (against yeast) and nystatin (against fungi) (Sigma Aldrich).
# LoVo = test: SRB antiproliferative assay, LoVo; format: cell-based, human; details: Homo sapiens, LoVo, 48 h, 1–100 µg·mL^−1, ND = not detected in the tested concentration range
# Method: (§3) Anticancer activity was evaluated using the sulforhodamine B assay (SRB) on four different human colon cancer cell lines: HT-29, LS180, LoVo and LoVo/DX and green monkey kidney fibroblasts COS7 (ATCC, Manassas, VA, USA). Cell lines HT-29 and COS7 were cultured in α-MEM medium (IIET PAS, Wrocław, Poland), LS180 in OptiMEM medium (IIET PAS), LoVo and LoVo/DX in mixture of α-MEM and OptiMEM medium (1:1 (v:v)). Each culture medium was supplemented with 10% fetal bovine serum, 2 mM glutamine, 100 μg·mL^−1 penicillin, 100 μg·mL^−1 streptomycin and 0.25 μg·mL^−1 amphotericin (all supplements purchased from Gibco (Paisley, UK). Cells were incubated at 37 °C, 5% CO2 in HeraCELL 150i incubator (Thermo Fisher Scientific, Waltham, MA, USA).
# (§4) For the SRB assay, cells were seeded onto 96-well plates (Sarstedt, Nümbrecht, Germany) at a density of 5·10^3/well and cultured overnight as described above. Then, the growth medium was gently removed and replaced with fresh medium, supplemented with aminochalcone derivatives in the concentration ranging from 1 µg·mL^−1 to 100 µg·mL^−1. All stock solutions were prepared in DMSO at a concentration of 10 mg·mL^−1. Cells were incubated for 48 h and then the SRB assay was performed as described previously. Each experiment was performed in quadruplicate. The final results were reported as the IC50 values calculated for three independent experiments. Cisplatin (Acros Organics, Waltham, MA, USA) and doxorubicin (Fisher BioReagents, Waltham, MA, USA) were used as positive controls of the test.
# LoVo/DX = test: SRB antiproliferative assay, LoVo/DX; format: cell-based, human; details: Homo sapiens, LoVo/DX, 48 h, 1–100 µg·mL^−1, ND = not detected in the tested concentration range
# Method: as §3, §4
# [3] = test system: Staphylococcus aureus DSM799; test: Microbial growth curve screening, S. aureus; format: cell-based; details: 0.1% (w/v); for ∆OD S. aureus: OD at 560 nm, control 1.67
# Method: as §1
# [4] = test system: Escherichia coli ATCC10536; test: Microbial growth curve screening, E. coli; format: cell-based; details: 0.1% (w/v); for ∆OD E. coli: OD at 560 nm, control 1.61
# Method: as §1
# [5] = test system: Alternaria alternata CBS1526; test: Microbial growth curve screening, A. alternata; format: cell-based; details: 0.1% (w/v); for ∆OD A. alternata: OD at 560 nm, control 1.86; for Lag-phase A. alternata: control 16.5 h
# Method: as §1
# Fusarium linii KB-F1 [6] = test: Microbial growth curve screening, F. linii; format: cell-based; details: 0.1% (w/v); for ∆OD F. linii: OD at 560 nm, control 1.95; for Lag-phase F. linii: control 13.5 h
# Method: as §1
# HT-29 = test: SRB antiproliferative assay, HT-29; format: cell-based, human; details: Homo sapiens, HT-29; SRB, 48 h, 1–100 µg·mL^−1; ND = not detected in the tested concentration range
# Method: as §3, §4
# Fusarium linii KB-F1 [7] = test: MIC evaluation (broth method), F. linii; format: cell-based; details: for MIC: Fusarium, KBF1, 48–72 h, read-out: Minimal inhibitory concentration F. linii
# Method: as §2
# LS180 = test: SRB antiproliferative assay, LS180; format: cell-based, human; details: Homo sapiens, LS180, 48 h, 1–100 µg·mL^−1, ND = not detected in the tested concentration range
# Method: as §3, §4
# [8] = test system: Escherichia coli ATCC10536; test: MIC evaluation (broth method), E. coli; format: cell-based; details: 48–72 h, read-out: Minimal inhibitory concentration E. coli
# Method: as §2
# [9] = SRB assay, normal fibroblasts COS7; format: cell-based, green monkey; details: green monkey, COS7 kidney fibroblasts (normal cell line), ND = not detected in the tested concentration range
# Method: as §3, §4
# Candida albicans DSM1386 [10] = test: MIC evaluation (broth method), C. albicans; format: cell-based; details: DSM1386, broth method, 48–72 h, read-out: Minimal inhibitory concentration C. albicans
# Method: as §2
# [11] = test system: Aspergillus niger DSM1957; test: Microbial growth curve screening, A. niger; format: cell-based; details: 0.1% (w/v); for ∆OD A. niger: OD at 560 nm, control 2.14; for Lag-phase A. niger: control 11.0 h
# Method: as §1
# [12] = test system: Alternaria alternata CBS1526; test: MIC evaluation (broth method), A. alternata; format: cell-based
# Method: as §2
# [13] = test system: Aspergillus niger DSM1957; test: MIC evaluation (broth method), A. niger; format: cell-based
# Method: as §2
Compound,∆OD C. albicans (Candida albicans DSM1386 [1]),Lag-phase C. albicans (Candida albicans DSM1386 [1]),MIC [2],IC50 (LoVo),IC50 (LoVo/DX),∆OD S. aureus [3],∆OD E. coli [4],melting point,∆OD A. alternata [5],Lag-phase A. alternata [5],∆OD F. linii (Fusarium linii KB-F1 [6]),IC50 (HT-29),MIC (Fusarium linii KB-F1 [7]),IC50 (LS180),MIC [8],IC50 at 48 h [9],MIC (Candida albicans DSM1386 [10]),∆OD A. niger [11],Lag-phase A. niger [11],Lag-phase F. linii (Fusarium linii KB-F1 [6]),also measured
"Nc1ccc(C(=O)/C=C/c2ccc([N+](=O)[O-])cc2)cc1 [Compound 12, 4′-Amino-4-nitrochalcone]",0.13,12.0 h,0.25 µg/mL,1.8 ± 0.1 µg/mL,2 ± 0.12 µg/mL,0.0,0.0,205 to 207 °C,0.87,13.0 h,0.0,3.42 ± 0.54 µg/mL,1 µg/mL,4.64 ± 0.54 µg/mL,0.25 µg/mL,3.1 ± 0.5 µg/mL,,,,,
"Nc1ccccc1C(=O)/C=C/c1ccc(OCc2ccccc2)cc1 [Compound 13, 2′-Amino-4-benzyloxychalcone]",,,0.25 µg/mL,,,0,0.0,,0.92,13.0 h,0.32,,,,0.25 µg/mL,,0.5 µg/mL,0.78,21.5 h,16.0 h,
"C[C@@H]1[C@H](O)[C@@H](C)/C=C/C=C/CC/C=C/C=C/C=C/C=C/C(O[C@H]2O[C@H](C)[C@@H](O)[C@H](N)[C@@H]2O)CC2O[C@](O)(CC(O)C(O)CCC(O)CC(O)CC(O)CC(=O)O[C@H]1C)CC(O)C2C(=O)O (stereo partly shown) [Nystatin, reference compound]",,,,,,,,,0.0,,0.13,,,,,,,0.74,4.5 h,10.0 h,Minimal inhibitory concentration A. alternata ([12]; 48–72 h): 1000 µg/mL; Minimal inhibitory concentration F. linii (Fusarium linii KB-F1 [7]; 48–72 h): 500 µg/mL; Minimal inhibitory concentration A. niger ([13]; 48–72 h): 250 µg/mL
"CCc1ccc(/C=C/C(=O)c2ccc(N)cc2)cc1 [Compound 6, 4′-Amino-4-ethylchalcone]",0.44,9.5 h,,4.26 ± 0.19 µg/mL,3.68 ± 0.3 µg/mL,0.87,0.16,125 °C,,,0.40,3.61 ± 0.21 µg/mL,,5.2 ± 0.3 µg/mL,,7.16 ± 0.34 µg/mL,,0.41,36.5 h,9.0 h,"MIC ([12]; Alternaria alternata, CBS1526, 48–72 h, read-out: Minimal inhibitory concentration A. alternata): 1 µg/mL; Lag-phase S. aureus ([3]; control 2.5 h): 28.0 h; Lag-phase E. coli ([4]; control 4.0 h): 3.5 h"
"Nc1cccc(C(=O)/C=C/c2ccc([N+](=O)[O-])cc2)c1 [Compound 11, 3′-Amino-4-nitrochalcone]",,,0.25 µg/mL,1.34 ± 0.1 µg/mL,1.36 ± 0.06 µg/mL,0.0,0.0,166 to 168 °C,0.55,42.0 h,0.0,2.77 ± 0.49 µg/mL,0.5 µg/mL,2.89 ± 0.53 µg/mL,1000 µg/mL,2.3 ± 0.45 µg/mL,0.25 µg/mL,0.83,39.5 h,,"MIC ([13]; Aspergillus niger, DSM1957, 48–72 h, read-out: Minimal inhibitory concentration A. niger): 1 µg/mL"
